14 compounds from patent US20180221352A1, “3-(1H-PYRROLO[2,3-C]PYRIDIN-2-YL)-1H-PYRAZOLO[3,4-B]PYRIDINES AND THERAPEUTIC USES THEREOF” (Samumed, LLC, priority 2015, published 2018) can be followed below.

Bounds are passed on as bounds.

What all share (assay type): cell-based
For one assay, the system named is IL-6. The assay can be described thus: IL-6 inhibition in LPS-stimulated THP-1 cells (HTRF). To be noted: Homo sapiens; for inhibition at 10 µM: THP-1, read-out: percent inhibition at 10 μM; for EC50: THP-1 cells, LPS 500 ng/mL, 22 hours, IL6 HTRF. The method, then: THP-1 cells were cultured in basal media with 1% FBS for 24 hours before the start of the assay. […] THP-1 cells were plated at 5000 cells/well in the 384-well plates and incubated at 37° C. for 2 h. 500 ng/mL of LPS was added after 2 hours and cells were incubated for another 22 hours at 37° C. Plates were spun in a centrifuge for 1 minute at […] and a mixture of anti-IL6 XL665, and anti-IL6 Cryptate diluted in reconstitution buffer (Cisbio Inc.) was added to each well. Following incubation for 3 hrs at room temperature, Homogeneous Time-Resolved Fluorescence (HTRF) was measured using the Envision (Perkin Elmer) at 665 nm and […]. The ratio of fluorescence at 665 nm to 620 nm was used as a readout for IL6 quantification. All samples were processed in duplicate. Readings were normalized to DMSO treated cells and normalized activities were utilized for EC50 calculations using the dose-response log (inhibitor) vs. response−variable slope (four parameters) nonlinear regression feature available in GraphPad Prism 5.0 (or Dotmatics).

Assay [1] concerns primary human fibroblasts derived from IPF patients (LL29 cells). The assay can be described thus: Inhibition of fibrotic process, αSMA staining in TGF-β1 treated fibroblasts. To be noted: Fibroblast; for EC50: 96 h, LL29 cells, TGF-β1 20 ng/mL, 4 days, % αSMA positive cells; for inhibition at 10 µM: read-out: percent inhibition at 10 μM. The method, then:
Representative compounds were screened using primary human fibroblasts (derived from IPF patients) treated with TGF-β1 to determine their ability to inhibit the fibrotic process.
LL29 cells are plated at 1,500 cells/well in 80 μL/well F12 medium supplemented with 1% Fetal Bovine Serum. […] Wells treated with TGF-31 and containing DMSO were used as controls. […] Following incubation for 4 days, SYTOX green nucleic acid stain (Life Technologies [Thermo Fisher Scientific]) was added to the wells at a final concentration of 1 μM and incubated at room temperature for 30 min.

Assay [2] relates to Wnt activity (Sp5-Luc reporter, SW480 colon carcinoma cells). The assay can be described thus: Wnt activity screening assay, Sp5-Luc reporter gene in SW480 cells. To be noted: Homo sapiens; for inhibition at 10 µM: SW480, read-out: percent inhibition at 10 μM; for EC50: Sp5-Luc reporter, SW480 cells, overnight incubation. The source says:
The screening assay for Wnt activity is described as follows. Reporter cell lines can be generated by stably transducing cancer cell lines (e.g., colon cancer) or primary cells (e.g., IEC-6 intestinal cells) with a lentiviral construct that includes a Wnt-responsive promoter driving expression of the firefly luciferase gene.
SW480 colon carcinoma cells were transduced with a lentiviral vector expressing luciferase with a human Sp5 promoter consisting of a sequence of eight TCF/LEF binding sites. SW480 cells stably expressing the Sp5-Luc reporter gene and a hygromycin resistance gene were selected by treatment with 150 μg/mL of hygromycin for 7 days. These stably transduced SW480 cells were expanded in cell culture and used for all further screening activities. […] For Sp5-Luc reporter gene assays, the cells were plated at 4,000 cells/well in 384-well plates with medium containing 1% fetal bovine serum and incubated overnight at 37° C. and 5% CO2. Following incubation, 20 μl of BrightGlo luminescence reagent (Promega) was added to each well of the 384-well assay plates. The plates were placed on an orbital shaker for 2 min and then luminescence was quantified using the Envision (Perkin Elmer) plate reader. Readings were normalized to DMSO only treated cells, and normalized activities were utilized for EC50 calculations using the dose-response log (inhibitor) vs. response−variable slope (four parameters) nonlinear regression feature available in GraphPad Prism 5.0 (or Dotmatics).
A general note: Reporter assays use an easily measured gene product as a stand-in for the process of interest.

Another assay relates to SW480 colon cancer cells. The assay can be described thus: Cell viability assay (CellTiter-Blue). Particulars: Homo sapiens; for EC50: 96 h, SW480 cell viability, four days; for inhibition at 10 µM: SW480, 96 h, read-out: percent inhibition at 10 μM. The method, then:
Representative compounds were screened using the following assay procedure to assess the effect on cell viability as described below.
Approximately 2×10^3 SW480 colon cancer cells were seeded into each well and allowed to incubate in the presence or absence of compound for four days at 37° C./5% CO2. Eight replicates of DMSO-treated cells served as controls and cells treated with compound were performed in duplicate.
After incubation, 20 μL of CellTiter-Blue (Promega) was added to each well allowed to incubate for approximately 3 hours. This reagent was a buffered solution which contains resazurin, metabolically active cells were able to reduce rezarurin (blue) into resorufin (pink) which was highly fluorescent. This measured fluorescence was used as a readout for cell viability.
In general terms: Resazurin is reduced to fluorescent resorufin, in cell work by metabolically active cells.

For the compound `O=C(Nc1cncc(-c2cnc3[nH]nc(-c4cc5c(N6CCCCC6)cncc5[nH]4)c3c2)c1)c1ccccc1` [Compound 179, N-(5-(3-(4-(Piperidin-1-yl)-1H-pyrrolo[2,3-c]pyridin-2-yl)-1H-pyrazolo[3,4-b]pyridin-5-yl)pyridin-3-yl)benzamide], the figures for the inhibition at 10 µM (in the assay with IL-6; in assay [2]) were 36.1% and 45.1%, respectively. Also, the EC50 – broadly, the concentration needed to bring the measured effect to its halfway point – is over 10 µM in the assay with IL-6, 4.59 µM in assay [1], over 10 µM in assay [2] and 3.84 µM in the assay with SW480 colon cancer cells.

For `c1ncc(-c2cnc3[nH]nc(-c4cc5c(N6CCCCC6)cncc5[nH]4)c3c2)cc1CN1CCCCC1` [Compound 183, 3-(4-(Piperidin-1-yl)-1H-pyrrolo[2,3-c]pyridin-2-yl)-5-(5-(piperidin-1-ylmethyl)pyridin-3-yl)-1H-pyrazolo[3,4-b]pyridine], the inhibition – broadly, the relative decrease from the control value, in per cent – at 10 µM in the assay on IL-6 was 20.3%. The EC50 was over 10 µM in the assay on IL-6, 2.4 µM in assay [1], 4.98 µM in assay [2] and 3.17 µM in the assay on SW480 colon cancer cells.

For `O=C(Nc1cncc(-c2cnc3[nH]nc(-c4cc5c(N6CCCCC6)cncc5[nH]4)c3c2)c1)C1CCCCC1` [Compound 191, N-(5-(3-(4-(Piperidin-1-yl)-1H-pyrrolo[2,3-c]pyridin-2-yl)-1H-pyrazolo[3,4-b]pyridin-5-yl)pyridin-3-yl)cyclohexanecarboxamide], the EC50 is 6.43 µM in the assay with IL-6, 5.63 µM in assay [1], 9.12 µM in assay [2] and 4.09 µM in the assay with SW480 colon cancer cells.

For the compound `CCNCc1cncc(-c2cnc3[nH]nc(-c4cc5ccncc5[nH]4)c3c2)c1` [Compound 258, N-((5-(3-(1H-Pyrrolo[2,3-c]pyridin-2-yl)-1H-pyrazolo[3,4-b]pyridin-5-yl)pyridin-3-yl)methyl)ethanamine], the EC50 turned out to be 1.55 µM with IL-6, 7.43 µM in assay [1], 9.34 µM in assay [2] and 3.32 µM with SW480 colon cancer cells.

Consider `c1ccc(-c2cnc3[nH]nc(-c4cc5ccncc5[nH]4)c3c2)nc1` [Compound 280, 5-(Pyridin-2-yl)-3-(1H-pyrrolo[2,3-c]pyridin-2-yl)-1H-pyrazolo[3,4-b]pyridine], for which the EC50 in the assay on IL-6 is 3.75 µM; in assay [1], 1.59 µM; in assay [2] it was 3.87 µM; with SW480 colon cancer cells, 1.15 µM.

Turning to `CC(C)C(=O)Nc1cncc(-c2cnc3[nH]nc(-c4cc5c(-c6ccoc6)cncc5[nH]4)c3c2)c1` [Compound 317, N-(5-(3-(4-(Furan-3-yl)-1H-pyrrolo[2,3-c]pyridin-2-yl)-1H-pyrazolo[3,4-b]pyridin-5-yl)pyridin-3-yl)isobutyramide], the EC50 amounted to 2.08 µM in the assay on IL-6, 1.69 µM in assay [1], 3.62 µM in assay [2] and 9.97 µM with SW480 colon cancer cells.

As for `CN(C)Cc1cncc(-c2cnc3[nH]nc(-c4cc5c(-c6ccoc6)cncc5[nH]4)c3c2)c1` [Compound 321, 1-(5-(3-(4-(Furan-3-yl)-1H-pyrrolo[2,3-c]pyridin-2-yl)-1H-pyrazolo[3,4-b]pyridin-5-yl)pyridin-3-yl)-N,N-dimethylmethanamine], the inhibition at 10 µM in the assay on IL-6 is 29.2%; in assay [1] it was 41.1%; in assay [2], 15.4%. In addition, the EC50 in the assay with IL-6 is over 10 µM; in assay [1] it was over 10 µM; in assay [2], over 10 µM; in the assay on SW480 colon cancer cells it was 6.29 µM.

For `CC(C)(C)CC(=O)Nc1cncc(-c2cnc3[nH]nc(-c4cc5c(-c6ccoc6)cncc5[nH]4)c3c2)c1` [Compound 324, N-(5-(3-(4-(Furan-3-yl)-1H-pyrrolo[2,3-c]pyridin-2-yl)-1H-pyrazolo[3,4-b]pyridin-5-yl)pyridin-3-yl)-3,3-dimethylbutanamide], the concentration for a half-maximal effect (EC50) with IL-6 came to 0.437 µM; in assay [1], 0.874 µM; in assay [2] it was 3.73 µM; in the assay with SW480 colon cancer cells, 7 µM.

Consider `c1ncc(-c2cnc3[nH]nc(-c4cc5c(-c6ccoc6)cncc5[nH]4)c3c2)cn1` [Compound 335, 3-(4-(Furan-3-yl)-1H-pyrrolo[2,3-c]pyridin-2-yl)-5-(pyrimidin-5-yl)-1H-pyrazolo[3,4-b]pyridine], for which the concentration giving a half-maximal response (EC50) in the assay on IL-6 was 2.52 µM; in assay [1] it was 4.77 µM; in assay [2], over 10 µM; in the assay with SW480 colon cancer cells it was over 10 µM. For the same compound, the inhibition at 10 µM in assay [2] was 24.9%; in the assay on SW480 colon cancer cells, 47%.

For the compound `CS(=O)(=O)NCc1cc(F)cc(-c2cncc3[nH]c(-c4n[nH]c5ncc(-c6cncc(CN7CCCC7)c6)cc45)cc23)c1` [Compound 490, N-(3-Fluoro-5-(2-(5-(5-(pyrrolidin-1-ylmethyl)pyridin-3-yl)-1H-pyrazolo [3,4-b]pyridin-3-yl)-1H-pyrrolo[2,3-c]pyridin-4-yl)benzyl)methanesulfonamide], the EC50 is 0.325 µM with IL-6, over 10 µM in assay [1], over 10 µM in assay [2] and over 10 µM in the assay with SW480 colon cancer cells. Also, the inhibition at 10 µM in assay [1] turned out to be 16.2%; in assay [2], 24%; with SW480 colon cancer cells it was 9.7%.

Take `CS(=O)(=O)NCc1cc(F)cc(-c2cncc3[nH]c(-c4n[nH]c5ncc(-c6cncc(NC(=O)C7CCCCC7)c6)cc45)cc23)c1` [Compound 499, N-(5-(3-(4-(3-Fluoro-5-(methylsulfonamidomethyl)phenyl)-1H-pyrrolo[2,3-c]pyridin-2-yl)-1H-pyrazolo[3,4-b]pyridin-5-yl)pyridin-3-yl)cyclohexanecarboxamide]: the inhibition at 10 µM in the assay on IL-6 came to 32.4%; in assay [1], 28.5%; in assay [2], 12.3%; in the assay with SW480 colon cancer cells, 9.9%. The EC50 (in the assay on IL-6; in assay [1]; in assay [2]; in the assay on SW480 colon cancer cells) was over 10 µM in each case.

As to `Fc1cccc(-c2cncc3[nH]c(-c4n[nH]c5ncc(C6CCNCC6)cc45)cc23)c1` [Compound 505, 3-(4-(3-Fluorophenyl)-1H-pyrrolo[2,3-c]pyridin-2-yl)-5-(piperidin-4-yl)-1H-pyrazolo[3,4-b]pyridine], the concentration giving a half-maximal response (EC50) in the assay with IL-6 is 4.09 µM; in assay [1], over 10 µM; in assay [2], over 10 µM; in the assay with SW480 colon cancer cells, over 10 µM. Besides, the inhibition at 10 µM came to 0% in assay [1], 17.5% in assay [2] and 7% with SW480 colon cancer cells.

Consider `Fc1ccc(-c2cncc3[nH]c(-c4n[nH]c5ncc(-c6cncc(OC7CCCCC7)c6)cc45)cc23)cc1` [Compound 527, 5-(5-(Cyclohexyloxy)pyridin-3-yl)-3-(4-(4-fluorophenyl)-1H-pyrrolo[2,3-c]pyridin-2-yl)-1H-pyrazolo[3,4-b]pyridine], for which the inhibition at 10 µM with IL-6 is 21.7%. The concentration for a half-maximal effect (EC50) in the assay with IL-6 is over 10 µM; in assay [1], 4.35 µM; in assay [2], 7.28 µM; in the assay with SW480 colon cancer cells, 2.6 µM.

In the case of `O=C(CC1CCNCC1)Nc1cncc(-c2cnc3[nH]nc(-c4cc5c(-c6cccnc6)cncc5[nH]4)c3c2)c1` [Compound 561, 2-(Piperidin-4-yl)-N-(5-(3-(4-(pyridin-3-yl)-1H-pyrrolo[2,3-c]pyridin-2-yl)-1H-pyrazolo[3,4-b]pyridin-5-yl)pyridin-3-yl)acetamide], the inhibition at 10 µM in the assay with IL-6 worked out at 14.5%; in assay [2], 0%; in the assay on SW480 colon cancer cells, 4.4%. Also, the EC50 with IL-6 is over 10 µM; in assay [1] it was 2.2 µM; in assay [2] it was over 10 µM; with SW480 colon cancer cells, over 10 µM.
